The test system of one assay is southern root-knot nematode (Meloidogyne incognita). Description: Test on effects against southern root-knot nematode: treated contaminated soil, cucumber pot test (Test Example 1 and Comparative Test). The class given is in vivo. Particulars: 200 ppm, 10 ml poured to 200 ml contaminated soil; cucumber; two to three weeks after sowing. The arrangement: key: 0: No knot formed on the root at all; 1: Knots formed to a slight degree; 2: Knots formed to a moderate degree; 3: Knots formed to a heavy degree; 4: Knots formed to the heaviest degree. Here is the method:
The treated soil was put into a pot, three cucumber seeds were sown, and the pot was placed in a greenhouse. Two to three weeks after the sowing of the cucumber seeds, the root knot index was determined based on the degree of formation of root knots shown in Table 5. Each composition containing Compound No. […]-192 or B-196 at a concentration of 400 ppm and the composition containing Compound No. […] [table] […] Root knot index of 2 corresponds to a state where the proportion of healthy roots is 50% or less to the entire roots, and indicates control effects to such an extent that cucumber as a crop plant to be tested cannot healthily grow.
With `CC(C)(C(=NNC=O)c1ccccc1F)n1cnc(C(F)(F)F)n1` [A-153], the root knot index is 1.

Still in this assay, the particulars now being: 400 ppm, 10 ml poured to 200 ml contaminated soil; cucumber; two to three weeks after sowing.
For the compound `CC(C)(C(=NNC=O)c1cc(Cl)ccc1Cl)n1ccc(C(F)(F)F)n1` [A-334], the root knot index is recorded as 1. On the same count and under the same terms, under `Cc1cccc(C(=NNC=O)C(C)(C)n2ccc(Cl)n2)c1` [A-324] stands 1; under `COc1ccccc1C(=NNC=O)C(C)(C)n1ccc(C(F)(F)F)n1` [A-264], 1.

The compound `Cc1ccccc1C(=NNC=O)C(C)(C)n1cc([N+](=O)[O-])cn1` [A-256] registered a root knot index of 1. The same measure, in the same setting: under `CC(C)(C(=NNC=O)c1cccc2c1OC(F)(F)O2)n1ccc(C(F)(F)F)n1` [A-410] stands 1. Turning to `COc1cccc(C(=NNC=O)C(C)(C)n2cnc(C(F)(F)F)n2)c1` [A-329], the root knot index was 1. In turn, `CC(C)(C(=NNC=O)c1ccccc1Cl)n1ccc(C(F)(F)F)n1` [A-150] displayed a root knot index of 1. Still for that read-out and setting: under `COc1ccccc1C(=NNC=O)C(C)(C)n1cnc(C(F)(F)F)n1` [A-265] stands 1.

As to `CCN(C=O)N=C(c1ccc(Cl)cc1)C(C)(C)n1cnc(C(F)(F)F)n1` [A-95], the root knot index was 1. On the same count and under the same terms, next, `CC(C)(C(=NNC=O)c1ccccc1Cl)n1cnc(Cl)n1` [A-200]: 1. The same measure, in the same setting: under `CC(C)(C(=NNC=O)c1cc(F)ccc1Cl)n1ccc(C(F)(F)F)n1` [A-351] stands 1.

In the case of `CC(C)(C(=NNC=O)c1cccc(C(F)(F)F)c1)n1cnc(C(F)(F)F)n1` [A-327], the root knot index was 1. With `Cc1ccccc1C(=NNC=O)C(C)(C)n1ccc([N+](=O)[O-])n1` [A-251], the root knot index turned out to be 1. On to `CC(C)(C(=NNC=O)c1ccccc1C(F)(F)F)n1cnc(C(F)(F)F)n1` [A-261], for which the root knot index is recorded as 1. The same measure, in the same setting: under `COCN(C=O)N=C(c1ccccc1Br)C(C)(C)n1ccc(C(F)(F)F)n1` [A-235] stands 1. `CC(C)(C(=NNC=O)c1cccc2c1OC(F)(F)O2)n1cnc(C#N)n1` [A-417] displayed a root knot index of 1. Still for that read-out and setting: under `CC(C)(C(=NNC=O)c1c(F)cccc1F)n1cnc(C(F)(F)F)n1` [A-161] stands 1; under `CC(C)(C(=NNC=O)c1ccccc1I)n1cnc(C(F)(F)F)n1` [A-241], 1; under `CC(C)(C(=NNC=O)c1ccccc1Cl)n1cc(F)cn1` [A-217], 1.

Regarding `CC(C)(C(=NNC=O)c1ccccc1I)n1ccc(C(F)(F)F)n1` [A-240], the root knot index turned out to be 1. On the same count and under the same terms, next, `CC(C)(C(=NNC=O)c1ccccc1Cl)n1ccc(Cl)n1` [A-199]: 1. `CC(C)(C(=NNC=O)c1cccc(F)c1)n1ccc(Cl)n1` [A-277] returned a root knot index of 1. The same measure, in the same setting: next, `O=CNN=C(c1ccccc1Cl)C1(n2ccc(C(F)(F)F)n2)CC1` [B-148]: 1; `Cc1ccccc1C(=NNC=O)C(C)(C)n1ccc(C#N)n1` [A-253]: 1; `Cc1ccccc1C(=NNC=O)C(C)(C)n1ccc(C(F)(F)F)n1` [A-244]: 1. Compound `CC(C)(C(=NNC=O)c1cccc(Cl)c1Cl)n1ccc(C(F)(F)F)n1` [A-332] had a root knot index of 1.

In turn, `Cc1ccccc1C(=NNC=O)C(C)(C)n1cc(F)cn1` [A-255] gave a root knot index of 1.

Turning to `Cc1ccccc1C(=NNC=O)C(C)(C)n1cnc([N+](=O)[O-])n1` [A-252], the root knot index was 1. Same read-out and setting: next, `CC(C)(C(=NNC=O)c1ccccc1Cl)n1cnc(C(F)(F)F)n1` [A-151]: 1. On the same count and under the same terms, under `O=CNN=C(c1ccc(F)cc1)C1(n2ccc(C(F)(F)F)n2)CC1` (single isomer, unassigned) [B-105] stands 1; under `CC(C)(C(=NNC=O)c1ccccc1Cl)n1cnc(C(F)F)n1` [A-198], 1; under `CC(C)(C(=NNC=O)c1ccccc1Br)n1ccc(C(F)(F)F)n1` [A-233], 1. The same measure, in the same setting: next, `CC(C)(C(=NNC=O)c1ccccc1F)n1ccc(C(F)(F)F)n1` [A-152]: 1; `COc1cccc(C(=NNC=O)C(C)(C)n2ccc(Cl)n2)c1` [A-330]: 1; `CC(C)(C(=NNC=O)c1cccc(F)c1F)n1ccc(C(F)(F)F)n1` [A-336]: 1. In turn, `Cc1ccccc1C(=NNC=O)C(C)(C)n1cnc(Cl)n1` [A-248] yielded a root knot index of 1. Still for that read-out and setting: under `CC(C)(C(=NNC=O)c1ccccc1Cl)n1cnc(Br)n1` [A-202] stands 1; under `CC(C)(C(=NNC=O)c1cccc2c1OC(F)(F)O2)n1cnc([N+](=O)[O-])n1` [A-419], 1; under `CC(C)(C(=NNC=O)c1c(F)cccc1F)n1ccc(C(F)(F)F)n1` [A-160], 1. Still for that read-out and setting: under `Cc1ccccc1C(=NNC=O)C(C)(C)n1ccc(Br)n1` [A-249] stands 1; under `Cc1ccccc1C(=NNC=O)C(C)(C)n1cnc(C(F)(F)F)n1` [A-245], 1. Still for that read-out and setting: under `CC(C)(C(=NNC=O)c1cccc2c1OC(F)(F)O2)n1ccc(Cl)n1` [A-412] stands 1.

`CC(C)(C(=NNC=O)c1cccc2c1OC(F)(F)O2)n1cnc(C(F)F)n1` [A-424] showed a root knot index of 1. In turn, `CC(C)(C(=NNC=O)c1ccc(Cl)cc1)n1cnc(C(F)(F)F)n1` [A-90] had a root knot index of 1. Still for that read-out and setting: next, `CC(C)(C(=NNC=O)c1ccccc1OC(F)(F)F)n1ccc(C(F)(F)F)n1` [A-270]: 1. On the same count and under the same terms, under `CC(C)(C(=NNC=O)c1ccccc1Cl)n1cnc([N+](=O)[O-])n1` [A-206] stands 1; under `CC(C)(C(=NNC=O)c1cccc(F)c1Cl)n1ccc(C(F)(F)F)n1` [A-349], 1.

Regarding `CN(C=O)N=C(c1ccc(Cl)cc1)C(C)(C)n1cnc(C(F)(F)F)n1` [A-94], the root knot index is on record as 1.

For the compound `CC(C)(C(=NNC=O)c1ccccc1Cl)n1ccc(Br)n1` [A-201], the root knot index came to 1. The compound `CC(C)(C(=NNC=O)c1ccccc1OC(F)(F)F)n1ccc(Br)n1` [A-272] gave a root knot index of 1.

In turn, `CCCN(C=O)N=C(c1ccc(Cl)cc1)C(C)(C)n1cnc(C(F)(F)F)n1` [A-96] gave a root knot index of 1. `CC(C)(C(=NNC=O)c1cccc(F)c1)n1cnc(Cl)n1` [A-278] came in with a root knot index of 1. As to `Cc1ccccc1C(=NNC=O)C(C)(C)n1cc(C#N)c(C(F)(F)F)n1` [A-257], the root knot index came to 1. Regarding `CC(C)(C(=NNC=O)c1ccccc1Cl)n1cc(C(F)(F)F)cn1` [A-216], the root knot index stood at 1. The same measure, in the same setting: under `CC(C)(C(=NNC=O)c1ccccc1Cl)n1ccc([N+](=O)[O-])n1` [A-205] stands 1; under `CCN(C=O)N=C(c1ccccc1Cl)C(C)(C)n1ccc(C(F)(F)F)n1` [A-193], 1; under `CC(C)(C(=NNC=O)c1cccc2c1OC(F)(F)O2)n1cnc(Cl)n1` [A-413], 1. Still for that read-out and setting: under `Cc1ccccc1C(=NNC=O)C(C)(C)n1ccc(Cl)n1` [A-247] stands 1; under `CSc1ccn(C(C)(C)C(=NNC=O)c2cccc(F)c2)n1` [A-430], 1; under `CC(C)(C(=NNC=O)c1cccc(F)c1Cl)n1cnc(C(F)(F)F)n1` [A-350], 1. On the same count and under the same terms, next, `O=CNN=C(c1ccccc1)C1(n2ccc(C(F)(F)F)n2)CCC1` [B-81]: 1; `CC(C)(C(=NNC=O)c1ccc(F)cc1F)n1cnc(C(F)(F)F)n1` [A-157]: 1. The compound `CC(C)(C(=NNC=O)c1cc(Cl)ccc1Cl)n1cnc(C(F)(F)F)n1` [A-335] returned a root knot index of 1. Turning to `CC(C)(C(=NNC=O)c1ccccc1OC(F)(F)F)n1cnc(C#N)n1` [A-273], the root knot index is reported as 1.

The compound `CC(C)(C(=NNC=O)c1ccccc1Cl)n1nc(Br)nc1Br` [A-224] displayed a root knot index of 1. Still for that read-out and setting: under `CC(C)(C(=NNC=O)c1cccc(F)c1)n1cnc(C(F)(F)F)n1` [A-275] stands 1.

`CC(C)(C(=NNC=O)c1ccc(F)cc1F)n1ccc(Cl)n1` [A-344] displayed a root knot index of 1. In turn, `CC(C)(C(=NNC=O)c1ccc(F)cc1F)n1ccc(C(F)(F)F)n1` [A-156] came in with a root knot index of 1.

`CC(C)(C(=NNC=O)c1cccc2c1OC(F)(F)O2)n1ccc(Br)n1` [A-414] showed a root knot index of 1. `O=CNN=C(c1ccc(Cl)cc1)C1(n2ccc(C(F)(F)F)n2)CC1` (single isomer, unassigned) [B-87] came in with a root knot index of 1. The same measure, in the same setting: next, `C#CCN(C=O)N=C(c1ccccc1Cl)C(C)(C)n1ccc(C(F)(F)F)n1` [A-195]: 1; `CC(C)(C(=NNC=O)c1ccccc1Cl)n1ccc(I)n1` [A-203]: 1.

`CC(C)(C(=NNC=O)c1cccc(F)c1F)n1cnc(C(F)(F)F)n1` [A-337] registered a root knot index of 1.

The assay is the same for the next values; noted with them: Comparative Test, active ingredient concentration 50 ppm; otherwise as Test Example 1 (cucumber).
Consider `CC(C(=NNC=O)c1cccc(Cl)c1)n1ccc(C(F)(F)F)n1` (centres unmarked) [Compound A-58 (WO2020/ 179910), reference compound], for which the root knot index is 2. Still for that read-out and setting: next, `CC(C(=NNC=O)c1ccccc1)n1cnc(C(F)(F)F)n1` (centres unmarked) [Compound A-3 (WO2020/ 179910), reference compound]: 2; `CC(C(=NNC=O)c1ccccc1)n1ccc(C(F)(F)F)n1` (centres unmarked) [Compound A-1 (WO2020/ 179910), reference compound]: 2.

Source of the values: patent publication US20240334931A1, “NEMATICIDAL COMPOSITION” (ISHIHARA SANGYO KAISHA, LTD., priority 2021, published 2024).
